Data published in patent US20250223259A1, “PROTEASE INHIBITORS FOR TREATING OR PREVENTING CORONAVIRUS INFECTION” (Merck Sharp & Dohme LLC, priority 2022, published 2025).

Molecular target: SARS2 coronavirus 3CL protease (Severe acute respiratory syndrome coronavirus 2 (2019-nCoV) (SARS-CoV-2), UniProt P0DTD1)
Assay: SARS2 Coronavirus 3CL Protease Assay (FRET)
Format: biochemical
Settings: SARS2 3CLPro FRET assay; 5 nM enzyme, 30 min pre-incubation with compound, 15 uM peptide substrate, 4 h room temperature

Row | SMILES | IC50 [µM]
1 | CCC1CCN(C(=O)[C@@H](NC(=O)OC)C(C)(C)C)C1C(=O)N[C@@H](CCC(C)(F)F)C(=O)C(=O)NC1CC1 (single isomer, unassigned) [Example 72, Methyl ((S)-1-((2(R or S),3(R or S))-2-(((S)-1-(cyclopropylamino)-6,6-difluoro-1,2-dioxoheptan-3-yl)carbamoyl)-3-ethylpyrrolidin-1-yl)-3,3-dimethyl-1-oxobutan-2-yl)carbamate] | 0.048
2 | COC(=O)N[C@H](C(=O)N1CC(C2CCC2)C[C@H]1C(=O)N[C@@H](CCC(C)(F)F)C(=O)C(=O)NC1CC1)C(C)(C)C (single isomer, unassigned) [Example 1, Methyl ((S)-1-((2S,4(S or R))-4-cyclobutyl-2-(((S)-1-(cyclopropylamino)-6,6-difluoro-1,2-dioxoheptan-3-yl)carbamoyl)pyrrolidin-1-yl)-3,3-dimethyl-1-oxobutan-2-yl)carbamate] | 0.028
3 | COC(=O)N[C@H](C(=O)N1C[C@H]2[C@@H]([C@H]1C(=O)N[C@@H](CCC(C)(F)F)C(=O)C(N)=O)C(C)(C)C2(C)C)C(C)(C)C [Example 42, Methyl ((S)-1-((1R,2S,5S)-2-(((S)-1-amino-6,6-difluoro-1,2-dioxoheptan-3-yl)carbamoyl)-6,6,7,7-tetramethyl-3-azabicyclo[3.2.0]heptan-3-yl)-3,3-dimethyl-1-oxobutan-2-yl)carbamate] | 0.022
4 | COC(=O)N[C@H](C(=O)N1C[C@H](C(F)(F)F)C[C@H]1C(=O)N[C@@H](CCC(C)(F)F)C(=O)C(=O)NC1CC1)C(C)(C)F [Example 71, Methyl ((R)-1-((2S,4R)-2-(((S)-1-(cyclopropylamino)-6,6-difluoro-1,2-dioxoheptan-3-yl)carbamoyl)-4-(trifluoromethyl)pyrrolidin-1-yl)-3-fluoro-3-methyl-1-oxobutan-2-yl)carbamate] | 0.043
5 | CC(C)OC(=O)N[C@H](C(=O)N1CC2(CCCCC2)C[C@H]1C(=O)N[C@@H](CCC(C)(F)F)C(=O)C(=O)NC1CC1)C1CCCCC1 [Example 50, Isopropyl ((S)-1-cyclohexyl-2-((S)-3-(((S)-1-(cyclopropylamino)-6,6-difluoro-1,2-dioxoheptan-3-yl)carbamoyl)-2-azaspiro[4.5]decan-2-yl)-2-oxoethyl)carbamate] | 0.062
6 | COC(=O)N[C@H](C(=O)N1CC2(CCCCC2)C[C@H]1C(=O)N[C@@H](CCC(C)(F)F)C(=O)C(=O)Nc1ccccc1C)C(C)(C)C [Example 12, Methyl ((S)-1-((S)-3-(((S)-6,6-difluoro-1,2-dioxo-1-(o-tolylamino)heptan-3-yl)carbamoyl)-2-azaspiro[4.5]decan-2-yl)-3,3-dimethyl-1-oxobutan-2-yl)carbamate] | 0.041
7 | CNC(=O)C(=O)[C@H](CCC(C)(F)F)NC(=O)[C@@H]1[C@H]2CCC(F)(F)[C@H]2CN1C(=O)[C@@H](NC(=O)OC)C(C)(C)C [Example 35, Methyl ((S)-1-((1S,3aR,6aS)-1-(((S)-6,6-difluoro-1-(methylamino)-1,2-dioxoheptan-3-yl)carbamoyl)-4,4-difluorohexahydrocyclopenta[c]pyrrol-2(1H)-yl)-3,3-dimethyl-1-oxobutan-2-yl)carbamate] | 0.0082
8 | CNC(=O)C(=O)[C@H](CCC(C)(F)F)NC(=O)[C@@H]1[C@H]2CC(C)(C)O[C@H]2CN1C(=O)[C@@H](NC(=O)OC)C(C)(C)C [Example 86, methyl ((S)-1-((3aR,4S,6aR)-4-(((S)-6,6-difluoro-1-(methylamino)-1,2-dioxoheptan-3-yl)carbamoyl)-2,2-dimethylhexahydro-5H-furo[2,3-c]pyrrol-5-yl)-3,3-dimethyl-1-oxobutan-2-yl)carbamate] | 0.02
9 | COC(=O)N[C@H](C(=O)N1CC2(CCCCC2)C[C@H]1C(=O)N[C@@H](CCC(C)(F)F)C(=O)C(N)=O)C(C)(C)C [Example 78, Methyl ((S)-1-((S)-3-(((S)-1-amino-6,6-difluoro-1,2-dioxoheptan-3-yl)carbamoyl)-2-azaspiro[4.5]decan-2-yl)-3,3-dimethyl-1-oxobutan-2-yl)carbamate] | 0.012
10 | COC(=O)NC(C(=O)N1CC2(CCCCC2)C[C@H]1C(=O)N[C@@H](CCC(C)(F)F)C(=O)C(=O)NC1CC1)C1CCC1 (single isomer, unassigned) [Example 63, Methyl ((R or S)-1-cyclobutyl-2-((S)-3-(((S)-1-(cyclopropylamino)-6,6-difluoro-1,2-dioxoheptan-3-yl)carbamoyl)-2-azaspiro[4.5]decan-2-yl)-2-oxoethyl)carbamate] | 0.032
11 | CNC(=O)C(=O)[C@H](CCC(C)(F)F)NC(=O)[C@@H]1[C@H]2CCC[C@H]2CN1C(=O)[C@@H](NC(=O)OC)C12CC(C(F)(F)F)(C1)C2 [Example 114, methyl ((S)-2-((1S,3aR,6aS)-1-(((S)-6,6-difluoro-1-(methylamino)-1,2-dioxoheptan-3-yl)carbamoyl)hexahydrocyclopenta[c]pyrrol-2(1H)-yl)-2-oxo-1-(3-(trifluoromethyl)bicyclo[1.1 1]pentan-1-yl)ethyl)carbamate] | 0.027
12 | CC(C)[C@H](NC(=O)OC(C)(C)C)C(=O)N1CC2(CCCCC2)C[C@H]1C(=O)N[C@@H](CCC(C)(F)F)C(=O)C(=O)NC1CC1 [Example 15, Tert-butyl ((S)-1-((S)-3-(((S)-1-(cyclopropylamino)-6,6-difluoro-1,2-dioxoheptan-3-yl)carbamoyl)-2-azaspiro[4.5]decan-2-yl)-3-methyl-1-oxobutan-2-yl)carbamate] | 0.113
13 | COC(=O)N[C@H](C(=O)N1CC2CC2C[C@H]1C(=O)N[C@@H](CCC(C)(F)F)C(=O)C(=O)NC1CC1)C(C)(C)C (single isomer, unassigned) [Example 84, methyl ((S)-1-((1S,4S,6S or 1R,4S,6R)-4-(((S)-1-(cyclopropylamino)-6,6-difluoro-1,2-dioxoheptan-3-yl)carbamoyl)-3-azabicyclo[4.1.0]heptan-3-yl)-3,3-dimethyl-1-oxobutan-2-yl)carbamate] | 0.096
14 | CNC(=O)C(=O)[C@H](CCC(C)(F)F)NC(=O)C1C2CC(C)(C)C2CN1C(=O)[C@@H](NC(=O)OC)C(C)(C)C (single isomer, unassigned) [Example 95, methyl ((S)-1-((1S,2S,5S or 1R,2R,5R)-2-(((S)-6,6-difluoro-1-(methylamino)-1,2-dioxoheptan-3-yl)carbamoyl)-6,6-dimethyl-3-azabicyclo[3.2.0]heptan-3-yl)-3,3-dimethyl-1-oxobutan-2-yl)carbamate] | 0.005
15 | COC(=O)N[C@H](C(=O)N1CC2(CCCCC2)C[C@H]1C(=O)N[C@@H](CCC(C)(F)F)C(=O)C(=O)NC1CC1)C(F)(F)F [Example 46, Methyl ((R)-3-((S)-3-(((S)-1-(cyclopropylamino)-6,6-difluoro-1,2-dioxoheptan-3-yl)carbamoyl)-2-azaspiro[4.5]decan-2-yl)-1,1,1-trifluoro-3-oxopropan-2-yl)carbamate] | 0.034
16 | COC(=O)N[C@H](C(=O)N1CC[C@]2(C[C@H]1C(=O)N[C@@H](CCC(C)(F)F)C(=O)C(=O)NC1CC1)CC2(F)F)C(C)(C)C [Example 94, methyl ((S)-1-((3S,5S)-5-(((S)-1-(cyclopropylamino)-6,6-difluoro-1,2-dioxoheptan-3-yl)carbamoyl)-1,1-difluoro-6-azaspiro[2.5]octan-6-yl)-3,3-dimethyl-1-oxobutan-2-yl)carbamate] | 0.009
